Measurements reported in publication PMC4704022, “Insights on FXR selective modulation. Speculation on bile acid chemical space in the discovery of potent and selective agonists” (Scientific Reports, 2016).
Entries after “also recorded” stand apart in the source; their conditions may differ.

Key:
[1] = test system: NASH patients; set-up: method as in PMID 25468160; details: cited from earlier work
[2] = test system: PBC patients; details: cited from earlier work
[3] = target: T1, FXR (Homo sapiens, UniProt Q96RI1); assay: FXR transactivation luciferase reporter assay in transfected HepG2 cells; assay type: cell-based; details: for FXR transactivation activity (in words): HepG2 cells, compounds at 10 μM, CDCA 10 μM and 6-ECDCA 1 μM as positive controls; for EC50: HepG2 cells transfected with FXR, luciferase reporter, 100 nM to 10 μM
T1 construct: expressed in transfected cells; host or cells: HepG2
T1 sequence (Q96RI1 1-486): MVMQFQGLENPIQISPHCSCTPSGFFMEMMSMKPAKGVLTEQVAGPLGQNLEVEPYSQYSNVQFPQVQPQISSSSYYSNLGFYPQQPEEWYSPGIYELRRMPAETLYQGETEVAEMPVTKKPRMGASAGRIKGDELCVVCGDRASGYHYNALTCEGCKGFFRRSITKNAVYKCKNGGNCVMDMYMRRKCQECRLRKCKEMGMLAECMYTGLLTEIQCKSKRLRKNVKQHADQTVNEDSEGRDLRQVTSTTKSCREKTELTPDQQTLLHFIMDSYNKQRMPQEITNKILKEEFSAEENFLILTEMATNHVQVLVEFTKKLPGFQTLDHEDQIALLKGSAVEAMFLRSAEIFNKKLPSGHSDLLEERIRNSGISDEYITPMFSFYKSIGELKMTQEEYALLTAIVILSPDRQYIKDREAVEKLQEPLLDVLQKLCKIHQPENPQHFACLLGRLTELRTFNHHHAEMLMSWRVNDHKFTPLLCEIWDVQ
T1 sequence (P19793 1-462 partner): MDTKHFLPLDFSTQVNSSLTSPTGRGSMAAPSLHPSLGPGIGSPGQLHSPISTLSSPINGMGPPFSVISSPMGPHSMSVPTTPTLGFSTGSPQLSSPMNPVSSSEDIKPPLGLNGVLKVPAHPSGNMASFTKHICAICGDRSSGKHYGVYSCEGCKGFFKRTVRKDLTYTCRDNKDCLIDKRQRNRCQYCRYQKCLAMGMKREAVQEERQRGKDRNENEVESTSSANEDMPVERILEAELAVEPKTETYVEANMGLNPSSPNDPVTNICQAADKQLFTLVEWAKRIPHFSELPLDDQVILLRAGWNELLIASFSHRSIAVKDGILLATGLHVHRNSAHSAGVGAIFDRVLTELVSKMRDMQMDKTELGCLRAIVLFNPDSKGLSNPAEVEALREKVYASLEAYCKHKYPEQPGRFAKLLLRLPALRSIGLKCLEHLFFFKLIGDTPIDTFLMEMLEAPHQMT
Procedure: Figure 6 Transactivation assays on FXR. (A) HepG2 cells were transfected with pSG5-FXR, pSG5-RXR, pCMV-βgal, and p(hsp27)TKLUC vectors. […] Twenty-four hour post transfection cells were stimulated with increasing concentrations of each agent: range from 100 nM to 10 μM.
To evaluate the transcriptional activity of FXR, HepG2 cells were transiently transfected with Fugene HD reagent (Promega) using the followings plasmids: pCMVSPORT-humanFXR, pSG5RXR, p(hsp27)TKLUC and pGL4.70, a plasmid containing the Renilla gene used for luciferase normalization.

[4] = target: T2, GPBAR1 (Homo sapiens, UniProt Q8TDU6); assay: GPBAR1 agonism, CRE-luciferase transactivation assay in transfected HEK-293T cells; assay type: cell-based; details: from FXR and GPBAR1 transactivation results
T2 construct: expressed in transfected cells; host or cells: HEK-293T
T2 sequence (Q8TDU6 1-330): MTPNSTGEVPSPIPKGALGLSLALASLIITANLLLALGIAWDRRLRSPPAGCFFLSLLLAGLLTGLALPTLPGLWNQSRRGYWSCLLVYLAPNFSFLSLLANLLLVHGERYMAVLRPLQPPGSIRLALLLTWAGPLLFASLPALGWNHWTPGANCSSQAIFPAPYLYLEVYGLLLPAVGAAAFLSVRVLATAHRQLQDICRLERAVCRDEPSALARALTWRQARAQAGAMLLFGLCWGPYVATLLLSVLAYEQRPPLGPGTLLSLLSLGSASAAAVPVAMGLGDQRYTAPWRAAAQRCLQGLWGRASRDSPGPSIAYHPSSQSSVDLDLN
Procedure: (A) HEK-293T cells were co-transfected with GPBAR1 and a reporter gene containing a cAMP responsive element in front of the luciferase gene. Twenty-four hour post transfection cells were stimulated with 7–21 (10 μM). Luciferase activity served as a measure of the rise in intracellular cAMP following activation of GPBAR1. […] Twenty-four hour post transfection cells were stimulated with increasing concentrations of each agent: range from 100 nM to 50 μM. Results are expressed as mean ± standard error.
To investigate GPBAR1 activation, HEK-293T cells were transiently transfected with Fugene HD reagent (Promega) using the following vectors: pCMVSPORT6-human GPBAR1, pGL4.29 (Promega), a reporter vector containing a cAMP response element (CRE) cloned upstream to the luciferase reporter gene luc2P and pGL4.70. […] Dose-response curves were performed in HEK-293T cells transfected as described above and treated with increasing concentrations of 9 and 21 (from 100 nM to 50 μM). […] At 18 h post stimulations, cellular lysate was assayed for luciferase and renilla activities using the Dual-Luciferase Reporter assay system (E1980, Promega). Luminescence was measured using Glomax 20/20 luminometer (Promega). Luciferase activities were normalized with Renilla activities.

[5] = target: T3, FXR-LBD (Homo sapiens, UniProt Q96RI1); assay: Alphascreen coactivator recruitment assay, FXR-LBD with SRC-1 peptide; assay type: biochemical; details: ligand at 2 μM, effect of 6 set as 100%
T3 construct: 10 nM of purified GST-tagged FXR-LBD protein
T3 sequence (Q96RI1 262-486 limits assumed): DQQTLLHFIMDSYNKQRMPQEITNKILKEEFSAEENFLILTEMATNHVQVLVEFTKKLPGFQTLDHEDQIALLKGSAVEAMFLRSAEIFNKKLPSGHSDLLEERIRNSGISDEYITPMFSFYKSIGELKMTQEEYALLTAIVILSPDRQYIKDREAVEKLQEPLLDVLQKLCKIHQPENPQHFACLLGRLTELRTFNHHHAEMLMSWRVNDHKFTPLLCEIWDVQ
Procedure: Figure 7 Coactivator recruitment assay measuring a direct interaction of FXR with SRC-1. Anti-GST-coated acceptor beads captured GST-fusion FXR-LBD and the biotinylated-SRC-1 peptide was captured by the streptavidin donor beads. FXR-LBD recruited SRC-1 in the presence of ligand at 2 μM and, upon illumination at 680 nm, chemical energy is transferred from donor to acceptor beads across the complex streptavidin-donor/Src-1-biotin/ligand/GSTFXR-LBD/anti-GST-acceptor and a signal is produced. Results are expressed as percentage of the effect of 6 arbitrarily settled as 100%. NT is referred to the experiment carried out in absence of ligand. Results are expressed as mean ± standard error.
The relative potency of selected members of this novel family was then investigated by a detailed measurement of concentration-response curve of the 3-deoxy sulfate derivative 9, the corresponding carboxylic acid 10, and the 3β-hydroxyl alcohol 15 and carboxylic acid derivative 17, all sharing the 6α/7α configuration, on FXR transactivation. […] In this assay, the ligand induces the recruitment of the coactivator to the LBD of hFXR.
Anti-GST-coated acceptor beads were used to capture the GST-fusion FXR-LBD, whereas the biotinylated-SRC-1 peptide was captured by the streptavidin donor beads. Upon illumination at 680 nm, chemical energy is transferred from donor to acceptor beads across the complex streptavidin-donor/Src-1-biotin/GSTFXR-LBD/anti-GST-acceptor and a signal is produced. The assay was performed in white, low-volume, 384-well Optiplates (PerkinElmer) using a final volume of 25 μL containing final concentrations of 10 nM of purified GST-tagged FXR-LBD protein, 30 nM biotinylated Src-1 peptide, 20 μg/mL anti-GST acceptor beads acceptor beads, and 10 μg/mL of streptavidin donor bead (PerkinElmer). The assay buffer contained 50 mM Tris (pH 7.4), 50 mM KCl, 0.1% BSA, and 1 mM DTT. […] After the addition of the detection mix (acceptor and donor beads), the plates were incubated in the dark for 4 h at room temperature and then were read in an Envision microplate analyzer (PerkinElmer).

[6] = test system: FXR; set-up: method as in PMID 10360171; details: cited from earlier work
[7] = test system: GPBAR1; set-up: method as in PMID 25247751; details: cited from earlier work

In the case of `CC[C@H]1[C@@H](O)[C@@H]2[C@H](CC[C@]3(C)[C@@H]([C@H](C)CCC(=O)O)CC[C@@H]23)[C@@]2(C)CC[C@@H](O)C[C@@H]12` [6-ECDCA, 6-ethylchenodeoxycholic acid], the “NASH resolution, patients” value ([1]; after 72 weeks, p = 0.08 vs. placebo) is listed as 22%, the “Decrease in HDL-C levels” value ([1]; as compared to placebo) is listed as 5% and the “Increase in LDL-C” value ([1]; as compared to placebo) is listed as 16%. For the same molecule, the “Primary histological outcome (NAFLD activity score) and fibrosis score” value ([1]; compared with placebo) was “significantly improved”, the “Drug discontinuation due to exacerbation of itching, patients” value ([2]; PBC patients) was 40% and the “Drug discontinuation, patients” value ([2]; due to pruritus) was 40%. The “Incidence of pruritus, patients” value ([2]; patients with primary biliary cirrhosis) was “up to 80%”.
For `CC[C@H]1[C@@H](O)C2C3CC[C@H]([C@H](C)CCCO)[C@@]3(C)CCC2[C@@]2(C)CCCC[C@@H]12` (stereo partly drawn) [compound 7], the “FXR transactivation activity (in words)” value [3] was “potent agonists of FXR”.
With `CC[C@H]1[C@H](O)C2C3CC[C@H]([C@H](C)CCCO)[C@@]3(C)CCC2[C@@]2(C)CCCC[C@@H]12` (stereo partly drawn) [compound 8] the “FXR transactivation activity (in words)” value [3] was “completely inactive towards FXR”.
In the case of `CC[C@H]1[C@@H](O)C2C3CC[C@H]([C@H](C)CCCOS(=O)(=O)O)[C@@]3(C)CCC2[C@@]2(C)CCCC[C@@H]12` (stereo partly drawn) [compound 9], the “Receptor preference FXR versus GPBAR1 (in words)” value [4] is reported as “preferential FXR modulator with a residual activity on GPBAR1”, the EC50 [3] is reported as 1100 nM and the “FXR transactivation activity (in words)” value [3] is reported as “potent agonists of FXR”.
With `CC[C@H]1[C@H](O)[C@@H]2[C@H](CC[C@]3(C)[C@@H]([C@H](C)CCC(=O)O)CC[C@@H]23)[C@@]2(C)CCCC[C@@H]12` [compound 11, 6α-ethyl-7β-hydroxy-5β-cholan-24-oic acid] the “FXR transactivation activity (in words)” value [3] was “retains a certain activity”.
For `CC[C@H]1[C@@H](O)C2C3CC[C@H]([C@H](C)CCC(=O)NCCS(=O)(=O)O)[C@@]3(C)CCC2[C@@]2(C)CCCC[C@@H]12` (stereo partly drawn) [compound 12], the “FXR transactivation activity (in words)” value [3] was “ability in transactivating FXR is also maintained; also recorded: still a potent FXR agonist”.
With `CC[C@@H]1[C@H](O)C2C3CC[C@H]([C@H](C)CCCO)[C@@]3(C)CCC2[C@@]2(C)CCCC[C@@H]12` (stereo partly drawn) [compound 13] the “FXR transactivation activity (in words)” value [3] was “complete loss of activity”.
In the case of `CC[C@H]1[C@@H](O)[C@@H]2[C@H](CC[C@]3(C)[C@@H]([C@H](C)CCCO)CC[C@@H]23)[C@@]2(C)CC[C@H](O)C[C@@H]12` [compound 15, 6α-ethyl-3β,7α-dihydroxy-5β-cholan-24-ol], the “Recruitment of SRC-1 coactivator to FXR-LBD (in words)” value [5] is reported as “very potent activity in the recruitment of SRC-1 co-activator”, the EC50 [3] is reported as 2200 nM and the “FXR transactivation activity (in words)” value [3] is reported as “potent agonists of FXR”.
For `CC[C@H]1[C@@H](O)[C@@H]2[C@H](CC[C@]3(C)[C@@H]([C@H](C)CCC(=O)O)CC[C@@H]23)[C@@]2(C)CC[C@H](O)C[C@@H]12` [compound 17, 6α-ethyl-3β,7α-dihydroxy-5β-cholan-24-oic acid], the “Recruitment of SRC-1 coactivator to FXR-LBD (in words)” value [5] was “very potent activity in the recruitment of SRC-1 co-activator” and the “FXR transactivation activity (in words)” value [3] was “potent agonists of FXR”.
For `CC[C@H]1[C@@H](O)C2C3CC[C@H]([C@H](C)CCC(=O)NCCS(=O)(=O)O)[C@@]3(C)CCC2[C@@]2(C)CC[C@H](O)C[C@@H]12` (stereo partly drawn) [compound 19], the “FXR transactivation activity (in words)” value [3] was “considerable decrease in FXR transactivation activity; also recorded: detrimental in term of FXR activation”.
With `CC[C@@H]1[C@H](O)C2C3CC[C@H]([C@H](C)CCCO)[C@@]3(C)CCC2[C@@]2(C)CC[C@H](O)C[C@@H]12` (stereo partly drawn) [compound 20] the “FXR transactivation activity (in words)” value [3] was “complete loss of activity”.
With `CC[C@@H]1[C@@H](O)C2C3CC[C@H]([C@H](C)CCCO)[C@@]3(C)CCC2[C@@]2(C)CC[C@H](O)C[C@@H]12` (stereo partly drawn) [compound 21] the “Receptor preference FXR versus GPBAR1 (in words)” value [4] was “weak but preferential GPBAR1 activator” and the “FXR transactivation activity (in words)” value [3] was “less potent then CDCA in transactivating FXR”.
In the case of `C[C@H](CCC(=O)O)[C@H]1CC[C@H]2[C@@H]3CC[C@@H]4C[C@H](O)CC[C@]4(C)[C@H]3C[C@H](O)[C@]12C` [deoxycholic acid], the “FXR ligand strength relative to CDCA (in words)” value [6] is listed as “weaker natural ligands”.
In the case of `C[C@H](CCC(=O)O)[C@H]1CC[C@H]2[C@@H]3[C@H](O)C[C@@H]4C[C@@H](O)CC[C@]4(C)[C@H]3CC[C@]12C` [iso-CDCA, isochenodeoxycholic acid], the “GPBAR1 activity (in words)” value [7] is given as “very weak activity towards GPBAR1”.
For `C[C@H](CCC(=O)O)[C@H]1CC[C@H]2[C@@H]3CC[C@@H]4C[C@@H](O)CC[C@]4(C)[C@H]3CC[C@]12C` [iso-LCA], the “GPBAR1 activity (in words)” value [7] is listed as “less potent respect to the cognate LCA”.
